Calls of active or inactive are those of the source. Cut-off read from the data, not from the text of the source, for most assays here: actives have a measured EC50 and inactives only a lower limit.
Assays:
[1] = molecular target: T1, Heat shock factor protein 1 (Mus musculus, UniProt P38532); assay: HSF1 potentiators in luciferase reporter cells, confirmation, cell-based, NIH3T3, luminescence, dose retest (AID 435004); type: functional;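 note: stress induced by proteasome inhibitor MG132 added 30 min after compound; luciferase reporter driven by HSF1 response element in NIH3T3 cells; actives raise luminescence as potentiators of the MG132 stress response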
T1 sequence (P38532 whole entry): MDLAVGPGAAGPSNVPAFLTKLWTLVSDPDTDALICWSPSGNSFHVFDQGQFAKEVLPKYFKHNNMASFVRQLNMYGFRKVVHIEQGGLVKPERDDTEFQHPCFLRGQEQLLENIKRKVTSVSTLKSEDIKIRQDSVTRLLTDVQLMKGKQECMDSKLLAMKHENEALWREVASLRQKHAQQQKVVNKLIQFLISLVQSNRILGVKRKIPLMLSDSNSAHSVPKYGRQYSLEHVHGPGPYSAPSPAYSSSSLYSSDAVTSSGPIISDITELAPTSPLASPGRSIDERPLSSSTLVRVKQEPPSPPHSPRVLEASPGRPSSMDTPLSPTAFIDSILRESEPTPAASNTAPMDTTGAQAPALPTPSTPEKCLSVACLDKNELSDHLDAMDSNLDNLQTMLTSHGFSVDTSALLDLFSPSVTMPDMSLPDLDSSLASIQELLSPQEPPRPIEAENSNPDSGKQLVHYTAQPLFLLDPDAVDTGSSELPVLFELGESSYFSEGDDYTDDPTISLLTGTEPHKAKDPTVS

[2] = microbe, parasite or virus in culture; type: functional; conditions: Mycobacterium tuberculosis
INS1 = assay: beta cell apoptosis inhibitors, cytokine rescue, dose response, luminescence, retest (AID 449756); type: functional, cell-based; conditions: Rattus norvegicus;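 note: cell death triggered by IL-1 beta plus TNF-alpha plus IFN-gamma mixture; protective hits raise ATP signal compared with cytokine alone wells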
[3] = NIH-3T3 fibroblast cytotoxicity, dose response, cytotoxicity control, cell-based, fluorescence, Alamar Blue, secondary assay (AID 2327); type: functional;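 note: NIH-3T3 mouse fibroblasts cultured with fluconazole at 8 µg/mL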
[4] = C. albicans growth with fluconazole, confirmation, fluorescence, retest (AID 2467); type: functional, cell-based
[5] = molecular target: T2, Rac GTPase-activating protein 1 (Homo sapiens, UniProt Q9H0H5); assay: MgcRacGAP GTPase-activating activity inhibitors, confirmation, biochemical, ADP Hunter fluorescence, primary and confirmatory (AID 624330); type: functional
T2 sequence (Q9H0H5 whole entry): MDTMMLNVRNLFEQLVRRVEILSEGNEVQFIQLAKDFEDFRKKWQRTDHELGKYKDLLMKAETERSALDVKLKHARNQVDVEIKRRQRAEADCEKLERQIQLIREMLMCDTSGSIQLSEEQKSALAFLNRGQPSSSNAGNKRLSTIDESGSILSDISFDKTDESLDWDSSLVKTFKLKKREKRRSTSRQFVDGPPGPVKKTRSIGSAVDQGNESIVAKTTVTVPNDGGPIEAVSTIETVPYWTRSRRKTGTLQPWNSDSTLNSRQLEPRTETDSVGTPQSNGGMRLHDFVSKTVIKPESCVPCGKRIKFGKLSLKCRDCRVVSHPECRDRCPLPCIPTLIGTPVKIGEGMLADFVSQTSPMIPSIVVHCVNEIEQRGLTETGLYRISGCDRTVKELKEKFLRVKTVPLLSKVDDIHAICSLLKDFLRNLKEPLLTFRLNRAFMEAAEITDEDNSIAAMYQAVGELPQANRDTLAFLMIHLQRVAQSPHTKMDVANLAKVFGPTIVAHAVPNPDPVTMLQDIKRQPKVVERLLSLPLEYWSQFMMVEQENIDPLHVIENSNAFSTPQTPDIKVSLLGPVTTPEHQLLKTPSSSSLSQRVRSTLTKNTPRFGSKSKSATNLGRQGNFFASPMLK

[6] = inhibitors of firefly luciferase expression or activity, dose response, H4 neuroglioma cells, luminescence (AID 1990); type: functional, cell-based
[7] = Luminescence Cell-Based Dose Response HTS to Identify Inhibitors of 5'UTR Stem-Loop Driven Prion Protein mRNA Translation in H4 Neuroglioblastoma Cells. [Related pubchem assays: 1827 (Project Summary), 1813 (Primary HTS)]; type: functional
[8] = inhibitors of SNCA 5'UTR-driven reporter translation, confirmation, H4 neuroglioma cells, luminescence (AID 1988); type: functional, cell-based
[9] = growth suppression of PTEN-null colon cells, dose response, cell-based, HCT116 PTEN knockout (AID 1047); type: functional;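 note: HCT116 colon tumor cells with PTEN knocked out; cells exposed to compound for 60 hours before readout; potency for loss of cell viability measured by luminescence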
[10] = growth suppression of beta-catenin-knockout colon cells, dose response, cell-based, HCT116, human colon tumor (AID 1045); type: functional;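 note: HCT116 colon tumor cells with beta catenin knocked out; cells exposed to compound for 60 hours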
[11] = Luminescence Cell-Based Dose Confirmation HTS to Identify Activators of 5'UTR Stem-Loop Driven Alpha-Synuclein mRNA Translation in H4 Neuroglioblastoma Cells. [Related pubchem assays: 1829 (Project Summary), 1814 (Primary HTS)]; type: functional
[12] = Luminescence Cell-Based Dose Response HTS to Identify Activators of Luciferase Translation or Activity in H4 […] Cells. [Related pubchem assays: 1829 (Project Summary), 1814 (Primary HTS)]; type: functional
H4 = assay: Luminescence Cell-Based Dose Response HTS to Identify Activators of 5'UTR Stem-Loop Driven Prion Protein mRNA Translation in H4 Neuroglioblastoma Cells. [Related pubchem assays: 1829 (Project Summary), 1814 (Primary HTS)]; type: functional; conditions: Homo sapiens
[13] = Luminescence Cell-Based Dose Retest to Confirm Inhibitors of Cancer Stem Cells. [Related pubchem assays (depositor defined):AID2717, AID2721]; type: functional; conditions: Homo sapiens
[14] = inhibitors of intracellular T. cruzi replication, confirmation, NIH3T3 host cells, beta-gal luminescence (AID 2044); type: functional, cell-based;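 note: intracellular parasites grown in NIH/3T3 mouse fibroblasts as host cells; luminescent beta-galactosidase reporter signal from transgenic T. cruzi replicating inside host cells; inhibitors lower the luminescence signal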
[15] = cytotoxicity toward NIH3T3 fibroblasts, dose response, counter-screen, cell-based, ATP luminescence, mouse fibroblasts (AID 2010); type: functional;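 note: cells exposed to compound for about 90 hours before reading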
[16] = molecular target: T3, Corticotropin-releasing factor receptor 2/Corticotropin-releasing factor-binding protein (Homo sapiens, UniProt P24387+Q13324); assay: Dose Response confirmation of uHTS hits for small molecule antagonists of the CRF-binding protein and CRF-R2 receptor complex.; type: functional; conditions: read-out: IC50_Mean
T3 sequence (Q13324 whole entry): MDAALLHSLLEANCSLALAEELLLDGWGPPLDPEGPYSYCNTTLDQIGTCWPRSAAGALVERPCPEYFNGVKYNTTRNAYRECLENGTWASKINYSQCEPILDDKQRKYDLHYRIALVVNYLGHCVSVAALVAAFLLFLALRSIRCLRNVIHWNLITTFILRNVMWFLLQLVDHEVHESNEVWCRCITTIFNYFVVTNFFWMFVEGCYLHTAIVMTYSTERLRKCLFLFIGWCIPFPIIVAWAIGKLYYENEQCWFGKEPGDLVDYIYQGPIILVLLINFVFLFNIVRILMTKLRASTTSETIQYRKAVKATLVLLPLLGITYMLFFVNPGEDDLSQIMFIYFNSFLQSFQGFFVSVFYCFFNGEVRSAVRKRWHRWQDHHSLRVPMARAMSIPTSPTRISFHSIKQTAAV
T3 sequence (P24387 whole entry): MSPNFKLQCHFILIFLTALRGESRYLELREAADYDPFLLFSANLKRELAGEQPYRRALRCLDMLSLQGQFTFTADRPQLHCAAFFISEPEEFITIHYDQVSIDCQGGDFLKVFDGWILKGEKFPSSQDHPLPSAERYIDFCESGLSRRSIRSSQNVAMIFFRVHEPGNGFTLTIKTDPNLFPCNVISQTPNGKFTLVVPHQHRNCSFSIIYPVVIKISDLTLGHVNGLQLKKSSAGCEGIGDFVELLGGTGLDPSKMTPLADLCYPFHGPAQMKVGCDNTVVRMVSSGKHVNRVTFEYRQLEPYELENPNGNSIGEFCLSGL

[17] = molecular target: T3, Corticotropin-releasing factor receptor 2/Corticotropin-releasing factor-binding protein; assay: activators of CRF receptor 2 with binding protein – uHTS hits, confirmation (AID 602473); type: functional; conditions: read-out: EC50_Mean

## COCCCNc1nc2nonc2nc1N1CCN(Cc2cccc(C)c2)CC1
[1]
  EC50: > 260 µM (inactive)

## Cc1ccc(S(=O)(=O)N(CC(=O)NCc2ccco2)Cc2ccc(F)cc2)cc1
[1]
  EC50: > 260 µM (inactive)

## Cc1ccc(C(=O)c2cc(C)sc2NC(=O)CN2CCN(C(=O)c3ccco3)CC2)cc1
[2]
  CC50: 23.4 µM (active)

## N=C(NOC(=O)c1cccc(Cn2cc(C(F)(F)F)ccc2=O)c1)c1ccccc1
INS1
  AC50: 7.96 µM (active)

## Nc1ccc(N2CCN(c3cccc(Cl)c3)CC2)cc1
[3]
  EC50: > 150 µM (inactive)
[4]
  EC50: > 38 µM (not active)
[5]
  IC50: 21 µM (active)

## Cc1oc(-c2ccccc2F)nc1CS(=O)(=O)CC(=O)NCCCN1CCN(C)CC1
[1]
  EC50: > 260 µM (inactive)

## CC(OC(=O)c1oc2ccccc2c1COc1ccccc1)C(N)=O (stereo not given)
[3]
  EC50: 19.8 µM (inconclusive)
[6]
  EC50: 26.7 µM (active)
[7]
  EC50: > 120 µM (not active)
[8]
  EC50: 26.1 µM (active)
[4]
  EC50: > 38 µM (not active)

## CCN1CCN(CCCNC(=O)c2ccc(/C=C3/Oc4ccccc4N(Cc4cccc(C)c4)C3=O)cc2)CC1
[6]
  EC50: > 120 µM (not active)
[7]
  EC50: > 120 µM (not active)
[8]
  EC50: 13.9 µM (active)
[2]
  CC50: 5.99 µM (active)

## Cc1cc(OCCCCCNCCO)cc(C)c1Cl
[9]
  EC50: 17.8 µM (active)
[10]
  EC50: 17.6 µM (active)

## O=[N+]([O-])c1ccc(S(=O)(=O)N2CCSC2c2ccco2)cc1 (stereo not given)
[1]
  EC50: > 260 µM (inactive)

## CC(C)=CCC/C(C)=C/CC(C)(C)CNCCN1CCNCC1
[11]
  EC50: > 120 µM (not active)
[12]
  EC50: > 120 µM (not active)
H4
  EC50: > 120 µM (not active)
[9]
  EC50: 6.28 µM (active)
[10]
  EC50: 5.89 µM (active)

## O=C(Nc1ccccc1O)C(c1ccccc1)c1ccccc1
INS1
  AC50: 2.92 µM (active)

## c1ccc(COc2ccccc2CNC2CCCC2)cc1
[1]
  EC50: > 260 µM (inactive)

## O=C(/C=C/c1ccncc1)c1ccc(NC(=O)c2ccccc2F)cc1
[9]
  EC50: 1.12 µM (active)
[10]
  EC50: 0.813 µM (active)
[13]
  AC50: 5.5 µM (active)

## O=C(NN=C1c2ccccc2-c2ccccc21)c1cccc(Br)c1
[2]
  CC50: 15.1 µM (active)
[9]
  EC50: 4.02 µM (active)
[10]
  EC50: 4 µM (active)

## Cc1ccc(-n2nc(-c3ccco3)cc2C(=O)NCc2cccnc2)cc1
[6]
  EC50: > 120 µM (not active)
[7]
  EC50: 38.1 µM (active)
[8]
  EC50: > 120 µM (not active)

## S=c1[nH]cc(-c2ccccc2)n1-c1ccccc1Cl
[1]
  EC50: > 260 µM (inactive)

## Cc1ccc(CS(=O)(=O)Cc2ccc(C(=O)NC3CCCCCC3)o2)cc1
[6]
  EC50: 24.3 µM (active)
[7]
  EC50: > 120 µM (not active)
[8]
  EC50: 22.5 µM (active)

## O=C(Nc1cccc(Cl)c1)c1cccc(Oc2ccc([N+](=O)[O-])cc2Cl)c1
[9]
  EC50: 16.1 µM (active)
[10]
  EC50: 17.1 µM (active)

## COc1ccc(C2c3c(oc4ccccc4c3=O)C(=O)N2c2ccccn2)cc1OC (stereo not given)
[9]
  EC50: 17.2 µM (active)
[10]
  EC50: 20.7 µM (active)

## CCC1(CC)NC(=O)N(CC(=O)N2N=C(c3ccc(Cl)cc3)CC2c2ccco2)C1=O (stereo not given)
[6]
  EC50: > 120 µM (not active)
[7]
  EC50: > 120 µM (not active)
[8]
  EC50: > 120 µM (not active)

## O=[N+]([O-])c1ccc(COc2ccc(-c3[nH]ncc3-c3ccc(Cl)cc3)c(O)c2)cc1
[2]
  CC50: > 40 µM (active)
[13]
  AC50: 4.02 µM (active)

## CCN1CCN(c2ccc(NC(=O)CCc3c(C)nc4c(-c5ccc(F)cc5)c(C)nn4c3C)cc2)CC1
[14]
  EC50: 1.48 µM (active)
[15]
  EC50: 32.4 µM (active)
[13]
  AC50: 2.15 µM (active)

## COc1ccc(CSc2nc(N3CCOCC3)c3c(c2C#N)CC(C)(C)OC3)cc1
[6]
  EC50: 18.5 µM (active)
[7]
  EC50: > 120 µM (not active)
[8]
  EC50: > 120 µM (not active)
[14]
  EC50: 2.52 µM (active)
[15]
  EC50: > 60 µM (not active)

## CCOc1ccc(Nc2nc(Cc3nnc(SCC(=O)c4ccc(C)c(C)c4)o3)cs2)cc1
INS1
  AC50: 10.4 µM (active)

## CCn1c(C(=O)O)c(CC(=O)Nc2cccc(C(F)(F)F)c2)c2ccccc21
[13]
  AC50: 15.3 µM (active)

## Cc1c(Cl)ccc2c1NC(=O)C21NC(CCC(N)=O)[C@H]2C(=O)N(c3ccc(Cl)cc3)C(=O)[C@H]21 (stereo not given in full)
[1]
  EC50: > 260 µM (inactive)
[16]
  IC50: > 47.1 µM (inactive)
[17]
  EC50: > 53 µM (inactive)

## Cc1ccc2c(CN3CCN(S(=O)(=O)/C=C/c4ccccc4)CC3)cc(=O)oc2c1
[1]
  EC50: > 260 µM (inactive)

## CC1(C)Cc2c(c(N3CCOCC3)nc3sc4c(NCc5ccccc5)nnnc4c23)CS1
[6]
  EC50: 25 µM (active)
[7]
  EC50: 20.8 µM (active)
[8]
  EC50: 10.6 µM (active)
[14]
  EC50: 1.13 µM (active)
[15]
  EC50: > 60 µM (not active)

## Cc1cccc(N/N=C/c2ccccc2O)c1
[13]
  AC50: 6.21 µM (active)

## CCOc1ccc(/C=N/NC(=O)C(C)N(c2ccc(OC)cc2)S(C)(=O)=O)cc1 (stereo not given)
[1]
  EC50: > 260 µM (inactive)
